Results taken from patent US20140329844A1, “METHOD OF RESTORING THE INCRETIN EFFECT” (NEURENDO PHARMA, LLC, priority 2006, published 2014).
Values joined by “and” are separate entries in the source; they are usually repeats but may differ in a detail not shown here. Equal values may be shown once.

Test: Meal tolerance test (MTT) in metabolically impaired rhesus monkeys treated with GNTI
Type: in vivo, rhesus monkey
Details: for BG / GIP / GLP-1 / Glucagon / Insulin / Glucagon Change T0-T60/120: individual animals
Method: To test for the effect of physiological first phase insulin secretion, a meal tolerance test (MTT) was developed. The meal tolerance test involved oral administration of meal based nutrients within suitable ratios of carbohydrates, proteins and fats. The ratios used for the given example were 70% carbohydrates, 8% protein and 22% fats. […] Following MTV administration, the same readings were taken at time points of 3-9 minutes to test for first-phase insulin secretion and the subsequent reduction in blood glucose. It was determined that a first-phase insulin secretion dependent slight increase in insulin concentration appeared, typically, at 5 minutes post MTT administration, followed by a corresponding blood glucose decrease at 7 minutes. A slight decrease in glucagon levels was also coupled with first-phase insulin secretion at 5 minutes. The MTT serves as a corollary to the intravenous glucose tolerance test (MITT) and better measures first-phase insulin secretion because oral administration of nutrients has a more direct effect on the incretin effect.
Table 7 illustrates administration of the MTT to two rhesus monkeys categorized as metabolically “normal’ based on “normal” fasting blood glucose values. The monkeys were given a diet of 55-60% carbohydrates, 15-25% protein, and 15-30% fat. Readings of blood glucose, insulin, and glucagon were taken at time points 0, 5, 7, 60 and 120 minutes. Additionally, at the same time points, the incretin hormones, GIP and GLP-1 were measured to more directly measure the incretin effect. […] Comparison of blood glucose levels at time points 0 and 120 minutes illustrates that normal metabolic functioning has returned the subject's blood glucose levels to normal within 120 minutes of MTT administration.
Table 8 illustrates the effect of GNTI on physiologic control of glucagon Baseline readings were taken on Day 1 of blood glucose, insulin, glucagon, GIP, and GLP-1 in metabolically impaired rhesus monkeys as determined through administration of the MTT. Cumulative in-situ doses of 45 ng/kg and 95 ng/kg were active on day 5 and day 7, respectively, during administration of the MTT. Readings of blood glucose, insulin, glucagon, GIP, and GLP-1 were taken at time points 0, 60 minutes and 120 minutes.

[1] = Day 5, GNTI 45 ng/kg cumulative, MTT TP 0 min
[2] = Day 5, GNTI 45 ng/kg cumulative, MTT TP 60 min
[3] = Day 5, GNTI 45 ng/kg cumulative, MTT TP 120 min
[4] = Day 7, GNTI 95 ng/kg cumulative, MTT TP 0 min
[5] = Day 7, GNTI 95 ng/kg cumulative, MTT TP 60 min
[6] = Day 7, GNTI 95 ng/kg cumulative, MTT TP 120 min

SMILES: NC(N)=Nc1ccc2[nH]c3c(c2c1)C[C@@]1(O)[C@H]2Cc4ccc(O)c5c4[C@@]1(CCN2CC1CC1)[C@H]3O5 [GNTI, guanidinylated naltrindole]
- Effect on glucagon after MTT (both dosages (45 and 95 ng/kg), time points 60 and 120, all subjects tested): marked decrease in glucagon
- BG [1]: 83 mg/dL and 69 mg/dL and 51 mg/dL
- GIP [1]: 50 pg/mL and 8 pg/mL
- GLP-1 [1]: 34 pmol/L and 19 pmol/L and 11 pmol/L
- Glucagon [1]: 411 pg/mL (2×) and 302 pg/mL
- Insulin [1]: 57 microU/mL and 23 microU/mL and 14 microU/mL
- BG [2]: 98 mg/dL and 70 mg/dL and 64 mg/dL
- GIP [2]: 640 pg/mL and 320 pg/mL and 650 pg/mL
- GLP-1 [2]: 83 pmol/L and 49 pmol/L and 31 pmol/L
- Glucagon [2]: 366 pg/mL and 172 pg/mL and 267 pg/mL
- Insulin [2]: 396 microU/mL and 145 microU/mL and 122 microU/mL
- BG [3]: 61 mg/dL and 78 mg/dL and 76 mg/dL
- GIP [3]: 760 pg/mL and 775 pg/mL
- GLP-1 [3]: 31 pmol/L and 82 pmol/L and 79 pmol/L
- Glucagon [3]: 261 pg/mL and 249 pg/mL and 122 pg/mL
- Insulin [3]: 200 microU/mL and 249 microU/mL and 137 microU/mL
- Glucagon Change T0-T60/120 (Day 5, GNTI 45 ng/kg cumulative, T0 to T60 min): −11% and −43% and −35%
- Glucagon Change T0-T60/120 (Day 5, GNTI 45 ng/kg cumulative, T0 to T120 min): −36% and −39% and −60%
- BG [4]: 56 mg/dL and 82 mg/dL and 73 mg/dL
- GIP [4]: 30 pg/mL and 25 pg/mL and 20 pg/mL
- GLP-1 [4]: 28 pmol/L and 60 pmol/L and 67 pmol/L
- Glucagon [4]: 472 pg/mL and 487 pg/mL and 293 pg/mL
- Insulin [4]: 14 microU/mL and 71 microU/mL and 30 microU/mL
- BG [5]: 70 mg/dL and 106 mg/dL and 69 mg/dL
- GIP [5]: 675 pg/mL (2×) and 75 pg/mL
- GLP-1 [5]: 35 pmol/L and 60 pmol/L
- Glucagon [5]: 240 pg/mL and 351 pg/mL and 107 pg/mL
- Insulin [5]: 100 microU/mL and 401 microU/mL and 54 microU/mL
- BG [6]: 63 mg/dL and 95 mg/dL and 86 mg/dL
- GIP [6]: 675 pg/mL and 775 pg/mL and 240 pg/mL
- GLP-1 [6]: 223 pmol/L and 77 pmol/L
- Glucagon [6]: 271 pg/mL and 267 pg/mL and 108 pg/mL
- Insulin [6]: 54 microU/mL and 307 microU/mL and 71 microU/mL
- Glucagon Change T0-T60/120 (Day 7, GNTI 95 ng/kg cumulative, T0 to T60 min): −49% and −28% and −63%
- Glucagon Change T0-T60/120 (Day 7, GNTI 95 ng/kg cumulative, T0 to T120 min): −43% and −45% and −63%
